Measured values reported in PMC11642016 (International Journal of Molecular Sciences, 2024).
Like-named read-outs stand apart in the source and are kept apart here.

What was measured:
PANC-1 cells = assay: CellTiter-Glo luminescent cell viability assay, PANC-1; conditions: 72 h, mean ± SD, n = 2; for Cell Viability (% of Control) 2.8 µM / Cell Viability (% of Control) 8.3 µM / Cell Viability (% of Control) 25 µM: PANC-1; for viability at 2.8 µM / viability at 8.3 µM / viability at 25 µM: Homo sapiens, PANC-1, 72 h; for viability at 2.8 µM: read-out: Cell Viability (% of Control) 2.8 µM, PANC-1; for viability at 8.3 µM: read-out: Cell Viability (% of Control) 8.3 µM, PANC-1; for viability at 25 µM: read-out: Cell Viability (% of Control) 25 µM, PANC-1
Fadu cells = assay: CellTiter-Glo luminescent cell viability assay, Fadu; conditions: 72 h, mean ± SD, n = 2; for Cell Viability (% of Control) 2.8 µM / Cell Viability (% of Control) 8.3 µM / Cell Viability (% of Control) 25 µM: Fadu; for viability at 2.8 µM / viability at 8.3 µM / viability at 25 µM: Homo sapiens, FaDu; for viability at 2.8 µM: read-out: Cell Viability (% of Control) 2.8 µM, Fadu; for viability at 8.3 µM: read-out: Cell Viability (% of Control) 8.3 µM, Fadu; for viability at 25 µM: read-out: Cell Viability (% of Control) 25 µM, Fadu

| Compound | viability at 2.8 µM (PANC-1 cells; second-set screening) [%] | viability at 8.3 µM (PANC-1 cells; second-set screening) [%] | viability at 25 µM (PANC-1 cells; second-set screening) [%] | viability at 2.8 µM (Fadu cells; second-set screening) [%] | viability at 8.3 µM (Fadu cells; second-set screening) [%] | viability at 25 µM (Fadu cells; second-set screening) [%] | other results |
| --- | --- | --- | --- | --- | --- | --- | --- |
| NCC#Cc1ccc(CN2C(=O)C3=C(CCN(Cc4cccc(-n5cc(-[c-]6cccc6)nn5)c4)C3)N3CCN=C23)cc1.[Fe+2].c1cc[cH-]c1 [3a] |  |  |  |  |  |  | Cell Viability (% of Control) 2.8 µM (PANC-1 cells; first-set screening): 101 ± 7 % of Control; Cell Viability (% of Control) 8.3 µM (PANC-1 cells; first-set screening): 88 ± 0 % of Control; Cell Viability (% of Control) 25 µM (PANC-1 cells; first-set screening): 0 ± 0 % of Control; Cell Viability (% of Control) 2.8 µM (Fadu cells; first-set screening): 104 ± 5 % of Control; Cell Viability (% of Control) 8.3 µM (Fadu cells; first-set screening): 100 ± 6 % of Control; Cell Viability (% of Control) 25 µM (Fadu cells; first-set screening): 0 ± 0 % of Control |
| O=C1C2=C(CCN(Cc3ccc(-n4cc(-[c-]5cccc5)nn4)cc3)C2)N2CCN=C2N1Cc1cccc(C#CCO)c1.[Fe+2].c1cc[cH-]c1 [2c] |  |  |  |  |  |  | Cell Viability (% of Control) 2.8 µM (PANC-1 cells; first-set screening): 94 ± 2 % of Control; Cell Viability (% of Control) 8.3 µM (PANC-1 cells; first-set screening): 95 ± 2 % of Control; Cell Viability (% of Control) 25 µM (PANC-1 cells; first-set screening): 97 ± 2 % of Control; Cell Viability (% of Control) 2.8 µM (Fadu cells; first-set screening): 79 ± 2 % of Control; Cell Viability (% of Control) 8.3 µM (Fadu cells; first-set screening): 76 ± 4 % of Control; Cell Viability (% of Control) 25 µM (Fadu cells; first-set screening): 65 ± 0 % of Control |
| O=C1C2=C(CCN(Cc3ccc(-n4cc(-c5ccccc5)nn4)cc3)C2)N2CCN=C2N1Cc1cccc(C#CCN2CCOCC2)c1 [42b] | 94 ± 5 | 82 ± 5 | 59 ± 3 | 108 ± 7 | 91 ± 12 | 13 ± 6 |  |
| O=C1C2=C(CCN(Cc3ccc(-n4cc(-c5ccccc5)nn4)cc3)C2)N2CCN=C2N1Cc1cccc(C#CCN2CCCCC2)c1 [40b] | 125 ± 5 | 12 ± 10 | 1 ± 1 | 92 ± 9 | 60 ± 3 | 24 ± 11 |  |
| O=C1C2=C(CCN(Cc3ccc(-n4cc(-[c-]5cccc5)nn4)cc3)C2)N2CCN=C2N1Cc1cccc(C#CCN2CCCCC2)c1.[Fe+2].c1cc[cH-]c1 [40a] |  |  |  |  |  |  | Cell Viability (% of Control) 2.8 µM (PANC-1 cells; second-set screening): 119 ± 4 % of Control; Cell Viability (% of Control) 8.3 µM (PANC-1 cells; second-set screening): 72 ± 61 % of Control; Cell Viability (% of Control) 25 µM (PANC-1 cells; second-set screening): 61 ± 67 % of Control; Cell Viability (% of Control) 2.8 µM (Fadu cells; second-set screening): 105 ± 5 % of Control; Cell Viability (% of Control) 8.3 µM (Fadu cells; second-set screening): 81 ± 21 % of Control; Cell Viability (% of Control) 25 µM (Fadu cells; second-set screening): 45 ± 34 % of Control |
| NCC#Cc1cccc(CN2C(=O)C3=C(CCN(Cc4ccc(-n5cc(-c6ccc(F)cc6)nn5)cc4)C3)N3CCN=C23)c1 [36b] | 116 ± 7 | 0 | 0 | 114 ± 7 | 1 ± 1 | 0 |  |
| CN1CCN(CC#Cc2cccc(CN3C(=O)C4=C(CCN(Cc5ccc(-n6cc(-c7ccccc7)nn6)cc5)C4)N4CCN=C34)c2)CC1 [41b] | 110 ± 6 | 0 | 0 | 106 ± 1 | 30 ± 28 | 3 ± 1 |  |
| NCC#Cc1ccc(CN2C(=O)C3=C(CCN(Cc4ccc(-n5cc(-c6cccc(N)c6)nn5)cc4)C3)N3CCN=C23)cc1 [1a] |  |  |  |  |  |  | viability at 2.8 µM (PANC-1 cells; first-set screening): 100 ± 5%; viability at 8.3 µM (PANC-1 cells; first-set screening): 93 ± 7%; viability at 25 µM (PANC-1 cells; first-set screening): 3 ± 2%; viability at 2.8 µM (Fadu cells; first-set screening): 106 ± 2%; viability at 8.3 µM (Fadu cells; first-set screening): 99 ± 2%; viability at 25 µM (Fadu cells; first-set screening): 10% |
